From patent US4644006A, “Substituted 3,4-diamino-1,2,5-thiadiazoles having histamine H2 -receptor antagonist activity” (Bristol-Myers Company, priority 1984, dated 1987)
Like-named read-outs stand apart in the source and are kept apart here.

Experiments:
[1] = target: T1, histamine H2-receptors (isolated guinea pig right atria) (Cavia porcellus, UniProt P47747); experiment: Histamine H2-receptor antagonism, isolated guinea pig right atria assay; design: estimated dissociation constant KB: unit not given here; conditions: for effect on histamine or dimaprit dose-response curves: at the concentrations utilized, 30-minute incubation
T1 construct: The spontaneously beating right atrium was dissected free from other tissues; from tissue; host or cells: isolated spontaneously beating right atrium of male Hartley guinea pigs
T1 sequence (P47747 whole entry): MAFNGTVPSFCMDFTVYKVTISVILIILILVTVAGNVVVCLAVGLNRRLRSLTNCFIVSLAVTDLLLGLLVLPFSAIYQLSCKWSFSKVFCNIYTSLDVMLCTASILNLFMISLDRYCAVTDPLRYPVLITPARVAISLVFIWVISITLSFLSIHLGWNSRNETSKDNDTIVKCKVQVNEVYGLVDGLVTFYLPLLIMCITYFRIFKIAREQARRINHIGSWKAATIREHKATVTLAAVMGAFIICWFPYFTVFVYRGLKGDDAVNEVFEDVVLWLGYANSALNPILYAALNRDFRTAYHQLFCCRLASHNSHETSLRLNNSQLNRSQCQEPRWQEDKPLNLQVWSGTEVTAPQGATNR
Protocol: Subsequent investigations by Hughes and Coret, Proc. Soc. […] Black et al., Agents and Actions, 3, 133 (1973) and Brimblecombe et al., Fed. […] The present comparative studies were carried out using a modification of the procedure reported by Reinhardt et al., Agents and Actions, 4, 217 (1974).
The spontaneously beating right atrium was dissected free from other tissues and a silk thread (4-0) attached to each end.

[2] = system: gastric acid secretion (Heidenhain pouch dog); experiment: Gastric antisecretory activity in the histamine-stimulated Heidenhain pouch dog; format: in vivo; conditions: for ED50: Canis lupus familiaris, 0.5 h, read-out: ED50 i.v.
Protocol: Prior to surgery, hematology and blood chemistry profiles are obtained and an assessment made as to the general health of selected female dogs. Dogs are vaccinated with Tissue Vax 5 (DHLP-Pitman-Moore) and housed in general animal quarters for four weeks' observation so incipient diseases may become apparent. Dogs are fasted with water ad libitum 24 hours prior to surgery.
Anesthesia is induced with Sodium Pentothal (Abbott) 25-30 mg/kg iv. Subsequent anesthesia is maintained with methoxyflurane (Pitman-Moore). A mid-line linea alba incision from xiphoid to umbilicus provides good exposure and ease of closure. The stomach is pulled up into the operative field, the greater curvature stretched out at multiple points and clamps placed along the selected line of incision. The pouch is made from the corpus of the stomach so that true parietal cell juice is obtained. About 30% of the corpus volume is resected. The cannula is made of light-weight,biologically-inert material such as nylon, Delrin or surgical stainless steel with dimensions and attachments after DeVito and Harkins [J. Appl. Physiol., 14, 138 (1959)]. Post-operatively, dogs are medicated with antibiotics and an analgesic. They are allowed 2-3 months for recovery. Experiments are carried out in the following way: Dogs are fasted overnight (18 hours) with water ad libitum prior to each experiment. The dogs are placed in a sling and a saphenous vein cannulated for drug administration. Histamine as the base (100 μg/kg/hr) and chlorpheniramine maleate (0.25 mg/kg/hr) are infused continuously (in a volume of 6 ml/hr) with a Harvard infusion pump.
Ninety minutes' infusion are allowed for the dogs to reach a steady state of acid output. At this time the drug or normal saline (control) is administered concomitantly with the secretagogue in a volume of 0.5 ml/kg over a 30 second period. Infusion of the secretagogue is continued and 15 minute samples of the gastic juice are taken for 4.5 hours. Each sample is measured to the nearest 0.5 ml and tritratable acidity is determined by titrating a 1 ml sample to pH 7.0 with a 0.2N NaOH, employing a fully automatic titration system (Metrohm). Titratable acid output is calculated in microequivalents by multiplying the volume is milliliters by the acid concentration in microequivalents per milliliter.
Results at peak activity after bolus intravenous administration of test compound are expressed as percent inhibition relative to control readings. Dose-response curves were constructed utilizing at least three dose levels with a minimum of three dogs at each dose level. […]

peptic ulcer disease = conditions: Gray et al., Lancet, 1, 8001 (1977); cited from earlier work
histamine H2-receptors = conditions: Black et al., Nature, 236, 385 (1972); cited from earlier work

estimated dissociation constant KB ([1]; estimated by method of Furchgott, KB = concentration of antagonist/dose ratio-1, ± S.E., N = 5 preparations)	Potency Ratio (cimetidine = 1.0) ([1]; from KB, isolated guinea pig right atria, cimetidine = 1.0)	SMILES	effect on histamine or dimaprit dose-response curves [1]	ED50 ([2]; intravenous dose giving 50% inhibition at time of peak activity, i.e. 30 minutes post dose, parentheses: 95% confidence limits, histamine 100 μg/kg/hr) [µmol/kg]	Potency Ratio (cimetidine = 1.0) ([2]; i.v., Heidenhain pouch dog, cimetidine = 1.0, Probit analysis)	duration of action of antisecretory activity ([2]; intravenous dog model, relative to cimetidine)	ED50 ([2]; iv) [µmol/kg]	clinical effectiveness in peptic ulcer disease (peptic ulcer disease)	type of antagonism at histamine H2-receptors (histamine H2-receptors)
0.0094 ± 0.0018	44	N=C(N)Nc1nc(CSCCNc2nsnc2N)cs1 [Example 1, 3-Amino-4-{2-[(2-guanidinothiazol-4-yl)methylthio]ethylamino}-1,2,5-thiadiazole]	Parallel shifts in dose-response curves were obtained without depressing the maximal response	0.082	32	prolonged duration of action relative to cimetidine			
		CN/C(=N/CCSCc1nc[nH]c1C)NC#N [cimetidine, reference compound]	Parallel shifts in dose-response curves were obtained without depressing the maximal response				2.6	effective therapeutic agent in the treatment of peptic ulcer disease	
		CNC(=S)NCCCCc1cnc[nH]1 [burimamide]							competitive antogonist
